Assay results reported in US20040033901A1, “Uses for cellulose-containing aggregates” (priority 1994, published 2004).

System: termites
Test: field test of termite attack on a weighted board on a one inch bed of aggregates
Format: in vivo
Settings: one inch thick bed on ground surface in termite-infested area, after one year
Description: In a field test, a one inch thick bed of aggregates containing either 0.1% Deltamethrin, 0.001% Deltamethrin, or no Deltamethrin were positioned on ground surface in an area known to be infested with termites and a weighted board was positioned on the top of the bed. […] Thus, at least for Deltamethrin, a toxin level of 0.001 wt % appears both effective and long lived.

CC1(C)[C@H](C(=O)O[C@H](C#N)c2cccc(Oc3ccccc3)c2)[C@@H]1C=C(Br)Br [Deltamethrin]
protection of board from termite attack (aggregates containing 0.001% Deltamethrin): totally protected | protection of board from termite attack (aggregates containing 0.1% Deltamethrin): totally protected
